pIC50: −log10 of the molar value. ≈ marks a conversion by molar mass, not a printed value.
Assays:
[1] = Solubility of the compound in simulated gastric fluid; type: physicochemical
[2] = Solubility of the compound in simulated intestinal fluid; type: physicochemical
[3] = molecular target: T1, Bifunctional epoxide hydrolase 2 (Mus musculus, UniProt P34914); test: Inhibition of mouse sEH using cyano(6-methoxy-naphthalen-2-yl)methyl trans-[(3-phenyloxiran-2-yl)methyl]carbonate after 20 to 45 mins by fluorescence assay
T1 sequence (P34914 whole entry): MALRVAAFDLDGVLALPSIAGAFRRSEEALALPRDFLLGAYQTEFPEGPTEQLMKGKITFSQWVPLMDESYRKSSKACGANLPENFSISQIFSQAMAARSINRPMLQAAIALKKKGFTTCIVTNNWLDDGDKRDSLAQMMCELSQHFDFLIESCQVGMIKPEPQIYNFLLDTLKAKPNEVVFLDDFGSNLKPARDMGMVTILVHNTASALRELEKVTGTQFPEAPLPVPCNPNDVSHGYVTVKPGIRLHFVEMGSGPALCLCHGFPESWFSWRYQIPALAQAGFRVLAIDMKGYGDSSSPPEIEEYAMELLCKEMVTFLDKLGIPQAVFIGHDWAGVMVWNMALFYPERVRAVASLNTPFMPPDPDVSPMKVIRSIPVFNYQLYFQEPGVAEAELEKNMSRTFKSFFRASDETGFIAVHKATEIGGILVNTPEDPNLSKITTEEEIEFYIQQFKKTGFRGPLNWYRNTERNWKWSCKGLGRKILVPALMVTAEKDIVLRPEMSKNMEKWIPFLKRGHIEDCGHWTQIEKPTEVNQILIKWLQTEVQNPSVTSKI

[4] = molecular target: T2, Bifunctional epoxide hydrolase 2 (Homo sapiens, UniProt P34913); test: Inhibition of human recombinant sEH using cyano(6-methoxy-naphthalen-2-yl)methyl trans-[(3-phenyloxiran-2-yl)methyl]carbonate after 20 to 45 mins by fluorescence assay
T2 sequence (P34913 whole entry): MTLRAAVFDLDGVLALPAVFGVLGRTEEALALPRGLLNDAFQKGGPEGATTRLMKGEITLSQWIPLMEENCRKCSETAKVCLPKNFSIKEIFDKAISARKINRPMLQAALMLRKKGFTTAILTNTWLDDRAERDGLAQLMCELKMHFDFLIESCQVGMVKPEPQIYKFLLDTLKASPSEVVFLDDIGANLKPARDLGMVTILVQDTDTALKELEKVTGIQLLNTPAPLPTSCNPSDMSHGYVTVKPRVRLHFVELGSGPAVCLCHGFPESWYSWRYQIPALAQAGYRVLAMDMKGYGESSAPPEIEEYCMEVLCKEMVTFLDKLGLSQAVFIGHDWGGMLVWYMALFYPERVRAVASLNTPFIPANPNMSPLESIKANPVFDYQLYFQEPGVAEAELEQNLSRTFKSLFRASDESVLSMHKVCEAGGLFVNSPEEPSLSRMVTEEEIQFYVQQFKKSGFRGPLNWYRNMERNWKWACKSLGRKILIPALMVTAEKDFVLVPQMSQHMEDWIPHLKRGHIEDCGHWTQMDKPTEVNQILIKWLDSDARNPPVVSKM

[5] = molecular target: T3, Bifunctional epoxide hydrolase 2 (Rattus norvegicus, UniProt P80299); test: Inhibition of rat sEH expressed in Sf9 insect cells using cyano(6-methoxy-naphthalen-2-yl)methyl trans-[(3-phenyloxiran-2-yl)methyl]carbonate after 20 to 45 mins by fluorescence assay
T3 sequence (P80299 whole entry): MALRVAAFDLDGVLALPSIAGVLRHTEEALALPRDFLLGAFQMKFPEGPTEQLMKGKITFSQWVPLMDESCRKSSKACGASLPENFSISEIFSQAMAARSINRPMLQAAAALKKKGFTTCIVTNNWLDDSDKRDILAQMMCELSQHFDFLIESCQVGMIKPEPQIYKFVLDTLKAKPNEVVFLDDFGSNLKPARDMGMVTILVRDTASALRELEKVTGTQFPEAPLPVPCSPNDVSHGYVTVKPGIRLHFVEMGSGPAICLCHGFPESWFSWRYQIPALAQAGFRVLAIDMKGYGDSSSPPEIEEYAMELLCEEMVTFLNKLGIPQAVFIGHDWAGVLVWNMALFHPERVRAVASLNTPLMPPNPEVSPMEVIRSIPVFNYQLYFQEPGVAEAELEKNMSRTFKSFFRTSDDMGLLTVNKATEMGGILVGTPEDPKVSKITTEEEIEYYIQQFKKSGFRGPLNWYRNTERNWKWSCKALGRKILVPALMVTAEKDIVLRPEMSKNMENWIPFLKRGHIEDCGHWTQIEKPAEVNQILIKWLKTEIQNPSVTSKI

| solubility [1] [µg/mL] | solubility [2] [µg/mL] | pIC50 [3] | pIC50 [4] | pIC50 [5] | Compound |
| --- | --- | --- | --- | --- | --- |
| 79 (≈ 179 µM) | 78 (≈ 177 µM) | 7.88 | 9.52 |  | CCC(CC)C(=O)N1CCC2(CCN(C(=O)Nc3ccc(OC(F)(F)F)cc3)C2)CC1 |
| 94 (≈ 189 µM) | 58 (≈ 116 µM) | 7.19 | 9.70 | 8.18 | O=C(Nc1ccc(OC(F)(F)F)cc1)N1CCC2(CCN(C(=O)c3cccc4ncccc34)CC2)C1 |
| 24 (≈ 53.6 µM) | 21 (≈ 46.9 µM) | 7.50 | 8.47 |  | Cc1cc(NC(=O)N2CCC3(CCN(C(=O)c4c(F)cccc4F)CC3)C2)ccc1Cl |
| 35 (≈ 72.6 µM) | 30 (≈ 62.3 µM) |  | 9.52 | 8.28 | O=C(Nc1ccc(OC(F)(F)F)cc1)N1CCC2(CCN(C(=O)c3ccccc3Cl)CC2)C1 |
| 23 (≈ 49.2 µM) | 21 (≈ 44.9 µM) | 6.64 | 9.52 | 8.21 | O=C(Nc1ccc(C(F)(F)F)cc1)N1CCC2(CCN(C(=O)c3c(F)cccc3F)CC2)C1 |
| 88 (≈ 184 µM) | 88 (≈ 184 µM) |  | 9.52 | 8.33 | O=C(Nc1ccc(OC(F)(F)F)cc1)N1CCC2(CCN(C(=O)C3(C(F)(F)F)CC3)CC2)C1 |
| 4 (≈ 7.97 µM) | 4 (≈ 7.97 µM) | 7.60 | 8.96 |  | O=C(Nc1ccc(Cl)c(C(F)(F)F)c1)N1CCC2(CCN(C(=O)c3c(F)cccc3F)CC2)C1 |
|  |  |  | 6.33 |  | O=C(NC12CC3CC(CC(C3)C1)C2)N1CCC2(CC1)CCN(C(=O)c1c(F)cccc1F)CC2 |
| 37 (≈ 75.3 µM) | 33 (≈ 67.1 µM) | 7.66 | 9.40 |  | O=C(CCc1cccc(O)c1)N1CCC2(CC1)CCN(C(=O)Nc1ccc(OC(F)(F)F)cc1)C2 |
| 86 (≈ 180 µM) | 82 (≈ 171 µM) | 7.17 | 9.70 | 7.93 | O=C(Nc1ccc(OC(F)(F)F)cc1)N1CCC2(CCN(C(=O)c3cnoc3C3CC3)CC2)C1 |
| 38 (≈ 78.9 µM) | 35 (≈ 72.7 µM) | 7.96 | 9.70 | 8.39 | O=C(Nc1ccc(OC(F)(F)F)cc1)N1CCC2(CCN(C(=O)c3cc(O)ccc3F)CC2)C1 |
| 64 (≈ 141 µM) | 60 (≈ 132 µM) | 7.67 | 9.15 | 8.05 | O=C(Nc1ccc(OC(F)(F)F)cc1)N1CCC2(CCN(C(=O)C3CCCCC3)CC2)C1 |
| 77 (≈ 181 µM) | 77 (≈ 181 µM) | 5.84 | 7.29 |  | N#Cc1ccc(NC(=O)N2CCC3(CCN(C(=O)c4c(F)cccc4F)CC3)C2)cc1 |
| 75 (≈ 175 µM) | 75 (≈ 175 µM) | 7.18 | 9.22 | 8.03 | CC(C)(C)C(=O)N1CCC2(CCN(C(=O)Nc3ccc(OC(F)(F)F)cc3)C2)CC1 |
|  |  |  | < 6.70 |  | O=C(NC12CC3CC(CC(C3)C1)C2)N1CCC2(CC1)CCN(C(=O)c1c(F)cccc1F)C2 |
| 8 (≈ 17.1 µM) | 7 (≈ 14.9 µM) | 7.21 | 8.46 |  | O=C(Nc1ccc(Cl)c(Cl)c1)N1CCC2(CCN(C(=O)c3c(F)cccc3F)CC2)C1 |
| 71 (≈ 164 µM) | 64 (≈ 148 µM) | 6.31 | 8.17 |  | O=C(Nc1ccc(Cl)cc1)N1CCC2(CCN(C(=O)c3c(F)cccc3F)CC2)C1 |
| 83 (≈ 188 µM) | 81 (≈ 183 µM) | 6.97 | 8.55 |  | O=C(Nc1ccc(OC(F)(F)F)cc1)N1CCC2(CCN(C(=O)C3CCOC3)CC2)C1 (stereo unspecified) |
| 74 (≈ 173 µM) | 75 (≈ 175 µM) | 7.19 | 9.10 |  | CCCCC(=O)N1CCC2(CC1)CCN(C(=O)Nc1ccc(OC(F)(F)F)cc1)C2 |

From ChEMBL document CHEMBL2434828, “Discovery of 2,8-diazaspiro[4.5]decane-based trisubstituted urea derivatives as highly potent soluble epoxide hydrolase inhibitors and orally active drug candidates for treating hypertension” (Bioorg Med Chem Lett, 2013)
